From ChEMBL document CHEMBL4825718, “Novel Dihydrooxadiazinones as PDE3 Inhibitors for Treating Cancer” (ACS Med Chem Lett, 2021)

What was measured:
[1] = tested on: HeLa; experiment: Antiproliferative activity against human HeLa cells assessed as cell growth inhibition after 72 hrs by Cell titer glo assay; format: functional, cell-based
[2] = tested on: SK-MEL3; experiment: Antiproliferative activity against human SK-MEL3 cells assessed as cell growth inhibition after 72 hrs by Cell titer glo assay; format: functional, cell-based; details: SK-MEL3, 72 h
[3] = tested on: IGR-37 cell line; experiment: Antiproliferative activity against human IGR37 cells assessed as cell growth inhibition after 72 hrs by Cell titer glo assay; format: functional, cell-based; details: IGR-37, 72 h
[4] = target: cGMP-inhibited 3',5'-cyclic phosphodiesterase 3A (Homo sapiens, UniProt Q14432); experiment: Inhibition of human full length PDE3A expressed in Sf9 cells measured after 60 mins by [3H]-cAMP Scintillation proximity assay
[5] = target: cGMP-inhibited 3',5'-cyclic phosphodiesterase 3B (Homo sapiens, UniProt Q13370); experiment: Inhibition of human full length PDE3B expressed in Sf9 cells measured after 60 mins by [3H]-cAMP Scintillation proximity assay
cGMP-inhibited 3',5'-cyclic phosphodiesterase 3B, sequence (Q13370 whole entry): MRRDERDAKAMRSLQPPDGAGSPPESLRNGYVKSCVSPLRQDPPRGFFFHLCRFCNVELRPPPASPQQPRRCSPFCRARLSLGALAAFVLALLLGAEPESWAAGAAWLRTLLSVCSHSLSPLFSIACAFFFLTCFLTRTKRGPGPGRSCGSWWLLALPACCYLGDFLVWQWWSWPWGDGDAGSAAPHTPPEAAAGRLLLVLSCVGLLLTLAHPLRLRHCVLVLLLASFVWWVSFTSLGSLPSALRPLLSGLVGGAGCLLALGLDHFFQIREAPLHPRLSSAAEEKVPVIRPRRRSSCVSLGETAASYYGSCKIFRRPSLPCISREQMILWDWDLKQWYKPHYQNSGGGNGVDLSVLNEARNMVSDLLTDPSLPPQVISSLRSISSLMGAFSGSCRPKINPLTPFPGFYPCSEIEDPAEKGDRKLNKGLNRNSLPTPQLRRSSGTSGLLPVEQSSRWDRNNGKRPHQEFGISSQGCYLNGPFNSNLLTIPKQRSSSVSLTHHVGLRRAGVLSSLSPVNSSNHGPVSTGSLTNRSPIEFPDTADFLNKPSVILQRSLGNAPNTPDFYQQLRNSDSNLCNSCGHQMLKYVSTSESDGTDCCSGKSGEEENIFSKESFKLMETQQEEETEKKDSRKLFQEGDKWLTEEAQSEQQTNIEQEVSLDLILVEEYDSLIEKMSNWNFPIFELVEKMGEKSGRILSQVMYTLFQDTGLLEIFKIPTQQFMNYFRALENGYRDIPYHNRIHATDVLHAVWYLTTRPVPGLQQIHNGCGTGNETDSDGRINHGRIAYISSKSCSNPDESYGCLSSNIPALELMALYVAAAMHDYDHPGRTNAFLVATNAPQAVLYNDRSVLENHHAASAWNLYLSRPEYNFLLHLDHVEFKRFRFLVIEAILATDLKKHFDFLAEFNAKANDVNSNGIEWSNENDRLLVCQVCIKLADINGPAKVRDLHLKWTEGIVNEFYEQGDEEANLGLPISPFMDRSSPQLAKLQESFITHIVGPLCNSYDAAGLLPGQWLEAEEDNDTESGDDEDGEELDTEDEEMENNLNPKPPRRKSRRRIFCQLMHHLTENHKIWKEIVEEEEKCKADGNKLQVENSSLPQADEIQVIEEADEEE

cGMP-inhibited 3',5'-cyclic phosphodiesterase 3A, sequence (Q14432 whole entry): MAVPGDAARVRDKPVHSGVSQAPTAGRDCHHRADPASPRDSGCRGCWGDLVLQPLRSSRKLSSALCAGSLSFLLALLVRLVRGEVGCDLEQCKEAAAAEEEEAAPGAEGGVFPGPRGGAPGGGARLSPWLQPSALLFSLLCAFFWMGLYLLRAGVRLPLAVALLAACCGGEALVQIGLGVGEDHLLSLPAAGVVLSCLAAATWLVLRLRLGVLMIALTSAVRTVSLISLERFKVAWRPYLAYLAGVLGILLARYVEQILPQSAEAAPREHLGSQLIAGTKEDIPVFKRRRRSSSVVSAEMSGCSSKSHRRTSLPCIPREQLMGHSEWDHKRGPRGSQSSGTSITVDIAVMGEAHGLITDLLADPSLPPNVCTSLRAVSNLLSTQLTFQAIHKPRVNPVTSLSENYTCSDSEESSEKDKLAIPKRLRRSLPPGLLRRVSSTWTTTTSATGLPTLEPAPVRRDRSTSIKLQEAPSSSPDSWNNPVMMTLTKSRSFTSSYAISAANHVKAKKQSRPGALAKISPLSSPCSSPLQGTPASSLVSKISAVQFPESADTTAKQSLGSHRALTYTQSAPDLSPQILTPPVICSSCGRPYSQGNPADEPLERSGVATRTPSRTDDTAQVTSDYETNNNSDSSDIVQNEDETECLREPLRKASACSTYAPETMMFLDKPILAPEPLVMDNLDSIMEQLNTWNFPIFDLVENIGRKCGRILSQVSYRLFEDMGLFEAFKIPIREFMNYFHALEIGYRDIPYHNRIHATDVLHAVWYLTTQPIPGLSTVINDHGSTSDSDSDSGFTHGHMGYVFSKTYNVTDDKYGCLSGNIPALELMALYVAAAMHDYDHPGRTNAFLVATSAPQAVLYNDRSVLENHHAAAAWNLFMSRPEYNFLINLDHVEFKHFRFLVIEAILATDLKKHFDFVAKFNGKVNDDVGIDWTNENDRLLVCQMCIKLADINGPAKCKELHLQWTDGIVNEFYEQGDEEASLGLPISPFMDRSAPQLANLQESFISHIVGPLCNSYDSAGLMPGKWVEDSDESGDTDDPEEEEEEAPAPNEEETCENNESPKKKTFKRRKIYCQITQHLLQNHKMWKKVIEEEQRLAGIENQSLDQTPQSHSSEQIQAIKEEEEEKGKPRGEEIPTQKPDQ

SMILES	IC50 [1] [pM]	IC50 [2] [pM]	IC50 [3] [pM]	IC50 [4] [pM]	IC50 [5] [pM]
C[C@@H]1OC(=O)NN=C1c1ccc(OC[C@@H](C)F)c(C(F)(F)F)c1	200	500	300	9000	9000
COCCOc1ccc(C2=NNC(=O)O[C@H]2C)cc1C(F)(F)F	100	300	200		
C[C@@H]1OC(=O)NN=C1c1ccc(OCCC(F)(F)F)c(C(F)(F)F)c1	100	300	300	7000	5000
CCCCOc1ccc(C2=NNC(=O)O[C@H]2C)cc1C(F)(F)F	200	600	500		
CCOc1ccc(C2=NNC(=O)O[C@H]2C)cc1C(F)(F)F	300	600	500	6000	7000
CCCOc1ccc(C2=NNC(=O)O[C@H]2C)cc1C(F)(F)F	100	300	300	8000	5000
